Measured values taken from patent US11452758B2, “Antimicrobial peptide derived from LL37 peptide and uses thereof” (INDUSTRY-ACADEMIC COOPERATION FOUNDATION, CHOSUN UNIVERSITY, priority 2018, dated 2022).
≈ marks a conversion by molar mass, not a printed value. Like-named read-outs stand apart in the source and are kept apart here. Where a SMILES comes first, the peptide text is derived from it.

What was measured:
[1] = test system: Acinetobacter baumannii KCTC 2508; experiment: Low vacuum scanning electron microscopy (membrane-disrupting property); assay type: cell-based; conditions: peptide at MIC concentration, 30 minutes at 37° C.
Description: To specifically determine the degree of antimicrobial activity of the synthesized peptides of the present invention, the influence of mother peptide LL37 and homologous peptides LL37-1, LL37-2, LL37-3 and LL37-4 on bacteria membrane, i.e., membrane-disrupting property, was determined by low vacuum scanning electron microscopy.
Specifically, Acinetobacter baumannii KCTC 2508 cells were cultured to a mid-log phase in MHB medium, and then diluted to a cell concentration of 2×10^7 cells/ml in physiological saline containing 10% MHB medium. […] After that, by using 2.5% glutaraldehyde, the bacterial cells were fixed for 30 minutes at room temperature and then for 12 hours at 4° C. After carrying out washing with buffer, the cells were fixed again with […] and dehydrated in stepwise manner by using ethanol. After the dehydration, platinum coating was carried out and the cells were observed by low vacuum scanning electron microscopy.

A. baumannii #5 [2] = experiment: Antibiofilm activity, Crystal violet staining; assay type: cell-based, Acinetobacter baumannii; conditions: 24 hours
Description: (§1) To compare the antimicrobial activity among the peptides produced by the method of Example 1, the inventors of the present invention measured the biofilm inhibitory concentration value of the peptide for not allowing any dissociation of bacterial cells.
(§2) Specifically, among the bacterial strains described in the above Table 2, bacteria showing the most favorable biofilm forming were cultured to a mid-log phase in a medium with suitable composition. Then, after dilution to bacterial cell concentration of 1×10^6 cells/50 μl, the cells were inoculated to a microtiter plate. Thereafter, LL37, LL37-1, LL37-2, LL37-3 or LL37-4 peptide which has been synthesized in Example 1 above was diluted, 1/10 times for each, with 10 mM phosphate buffered physiological saline (PBS) in a 96-well plate. After adding the peptide (50 μl) to each well of the plate, the cells were cultured for 24 hours at 37° C. After removing the supernatant completely, the cells were fixed with 100% methanol for 15 minutes and stained for 1 hour with Crystal violet staining solution followed by rinsing for 3 times. Then, after dissolving in 95% ethanol, the absorbance was measured at a wavelength of 595 nm by using a microtiter plate reader to determine the biofilm minimal inhibitory concentration value of each bacterial strain.

A. baumannii #10 [3] = experiment: Antibiofilm activity, Crystal violet staining; assay type: cell-based, Acinetobacter baumannii; conditions: 24 hours
Description: as §1, §2

A. baumannii KCTC 2508 [4] = experiment: Antibiofilm activity, Crystal violet staining; assay type: cell-based, Acinetobacter baumannii; conditions: 24 hours
Description: as §1, §2

[5] = test system: L. monocytogenes KCTC 3710; assay type: cell-based, Listeria monocytogenes
From the text: (§3) To compare the antimicrobial activity among the peptides produced by the method of Example 1, the inventors of the present invention measured the minimal growth inhibitory concentration (MIC), which is minimum concentration of the peptide not allowing any […] of bacterial cells.
(§4) Specifically, the bacterial strains described in the following Table 2 were purchased and cultured to a mid-log phase in MHB (Mueller Hinton Broth) medium. Then, after dilution to bacterial cell concentration of 2×10^5 cells/50 μl, the cells were inoculated to a microtiter plate (NUNC, USA). Thereafter, LL37-1, LL37-2, LL37-3 or LL37-4 peptide which has been synthesized in Example 1 above was subjected to serial dilution, ½ times for each, in a 96-well plate. After adding the peptides in an amount of 50 μl to the cell plate, the cells were cultured for 18 hours at 37° C. By using a microtiter plate reader (Merck Elisa reader, Germany), the absorbance was measured at a wavelength of 600 nm to determine the MIC value of each bacterial strain. As a control group, LL37 as a mother peptide was used and subjected to the same process as above to determine the MIC value of each strain.

A. baumannii #11 = assay type: cell-based, Acinetobacter baumannii
From the text: as §3, §4

A. baumannii #5 [6] = assay type: cell-based, Acinetobacter baumannii
From the text: as §3, §4

A. baumannii #19 = assay type: cell-based, Acinetobacter baumannii
From the text: as §3, §4

A. baumannii #2 = assay type: cell-based, Acinetobacter baumannii
From the text: as §3, §4

A. baumannii #3 = assay type: cell-based, Acinetobacter baumannii
From the text: as §3, §4

A. baumannii #10 [7] = assay type: cell-based, Acinetobacter baumannii
From the text: as §3, §4

A. baumannii #12 = assay type: cell-based, Acinetobacter baumannii
From the text: as §3, §4

A. baumannii #9 = assay type: cell-based, Acinetobacter baumannii
From the text: as §3, §4

A. baumannii #4 = assay type: cell-based, Acinetobacter baumannii
From the text: as §3, §4

A. baumannii #8 = assay type: cell-based, Acinetobacter baumannii
From the text: as §3, §4

A. baumannii KCTC 2508 [8] = assay type: cell-based, Acinetobacter baumannii
From the text: as §3, §4

A. baumannii #13 = assay type: cell-based, Acinetobacter baumannii
From the text: as §3, §4

Row | Compound | membrane-disrupting property (scanning electron microscopy) [1] | Biofilm forming ability (A. baumannii #5 [2]; peptide 2 μM) | Biofilm forming ability (A. baumannii #5 [2]; peptide 4 μM) | Biofilm forming ability (A. baumannii #5 [2]; peptide 8 μM) | Biofilm forming ability (A. baumannii #5 [2]; peptide 16 μM) | Biofilm forming ability (A. baumannii #5 [2]; peptide 32 μM) | Biofilm forming ability (A. baumannii #10 [3]; peptide 2 μM) | Biofilm forming ability (A. baumannii #10 [3]; peptide 4 μM) | Biofilm forming ability (A. baumannii #10 [3]; peptide 8 μM) | Biofilm forming ability (A. baumannii #10 [3]; peptide 16 μM) | Biofilm forming ability (A. baumannii #10 [3]; peptide 32 μM) | Biofilm forming ability (A. baumannii KCTC 2508 [4]; peptide 2 μM) | Biofilm forming ability (A. baumannii KCTC 2508 [4]; peptide 4 μM) | Biofilm forming ability (A. baumannii KCTC 2508 [4]; peptide 8 μM) | Biofilm forming ability (A. baumannii KCTC 2508 [4]; peptide 16 μM) | Biofilm forming ability (A. baumannii KCTC 2508 [4]; peptide 32 μM) | Minimal inhibitory concentration ([5]; KCTC 3710, 18 h) | Minimal inhibitory concentration (A. baumannii #11; #11) | Minimal inhibitory concentration (A. baumannii #5 [6]; #5) | Minimal inhibitory concentration (A. baumannii #19; #19) | further results
1 | CC[C@H](C)[C@H](NC(=O)[C@H](CCCCN)NC(=O)[C@H](CCC(=O)O)NC(=O)[C@H](CCCCN)NC(=O)[C@H](CO)NC(=O)[C@H](CCCCN)NC(=O)[C@H](CCCNC(=N)N)NC(=O)[C@H](Cc1ccccc1)NC(=O)[C@H](Cc1ccccc1)NC(=O)[C@H](CC(=O)O)NC(=O)CNC(=O)[C@H](CC(C)C)NC(=O)[C@@H](N)CC(C)C)C(=O)NCC(=O)N[C@@H](CCCCN)C(=O)N[C@@H](CCC(=O)O)C(=O)N[C@@H](Cc1ccccc1)C(=O)N[C@@H](CCCCN)C(=O)N[C@@H](CCCNC(=N)N)C(=O)N[C@H](C(=O)N[C@H](C(=O)N[C@@H](CCC(N)=O)C(=O)N[C@@H](CCCNC(=N)N)C(=O)N[C@H](C(=O)N[C@@H](CCCCN)C(=O)N[C@@H](CC(=O)O)C(=O)N[C@@H](Cc1ccccc1)C(=O)N[C@@H](CC(C)C)C(=O)N[C@@H](CCCNC(=N)N)C(=O)N[C@@H](CC(N)=O)C(=O)N[C@@H](CC(C)C)C(=O)N[C@H](C(=O)N1CCC[C@H]1C(=O)N[C@@H](CCCNC(=N)N)C(=O)N[C@H](C(=O)N[C@@H](CCC(=O)O)C(=O)N[C@@H](CO)C(N)=O)[C@@H](C)O)C(C)C)[C@@H](C)CC)C(C)C)[C@@H](C)CC [LL37] | disruption of bacteria membrane | 97% | 74% | 40% | 36% | 15% | 62% | 58% | 54% | 53% | 13% | 42% | 39% | 33% | 23% | 10% | 64 µM (≈ 288 µg/mL) | 2 µM (≈ 8.98 µg/mL) | 2 µM (≈ 8.98 µg/mL) | 2 µM (≈ 8.98 µg/mL) | Minimal inhibitory concentration (A. baumannii #2; #2): 2 µM (≈ 8.98 µg/mL); Minimal inhibitory concentration (A. baumannii #3; #3): 2 µM (≈ 8.98 µg/mL); Minimal inhibitory concentration (A. baumannii #10 [7]; #10): 2 µM (≈ 8.98 µg/mL); Minimal inhibitory concentration (A. baumannii #12; #12): 2 µM (≈ 8.98 µg/mL); Minimal inhibitory concentration (A. baumannii #9; #9): 2 µM (≈ 8.98 µg/mL); Minimal inhibitory concentration (A. baumannii #4; #4): 2 µM (≈ 8.98 µg/mL); Minimal inhibitory concentration (A. baumannii #8; #8): 2 µM (≈ 8.98 µg/mL); Minimal inhibitory concentration of antimicrobial peptide (A. baumannii KCTC 2508 [8]; KCTC 2508): 2 µM; Minimal inhibitory concentration (A. baumannii KCTC 2508 [8]; KCTC 2508, 18 h): 2 µM (≈ 8.98 µg/mL); Minimal inhibitory concentration (A. baumannii #13; #13): 2 µM (≈ 8.98 µg/mL)
2 | CC[C@H](C)[C@H](NC(=O)[C@H](CCCNC(=N)N)NC(=O)[C@H](CCC(N)=O)NC(=O)[C@@H](NC(=O)[C@@H](NC(=O)[C@H](CCCNC(=N)N)NC(=O)[C@H](CCCCN)NC(=O)[C@H](Cc1ccccc1)NC(=O)[C@H](CCC(=O)O)NC(=O)[C@@H](N)CCCCN)[C@@H](C)CC)C(C)C)C(=O)N[C@@H](CCCCN)C(=O)N[C@@H](CCCCN)C(=O)N[C@@H](Cc1ccccc1)C(=O)N[C@@H](CC(C)C)C(=O)N[C@@H](CCCNC(=N)N)C(=O)N[C@@H](CC(N)=O)C(N)=O [LL37-3, KEFKRIVQRIKKFLRN-NH2] (H-KEFKRIVQRIKKFLRN-NH2; N-terminus assumed) | disruption of bacteria membrane | 60% | 62% | 26% | 24% | 20% | 61% | 38% | 34% | 32% | 30% | 52% | 41% | 29% | 25% | 23% | 64 µM (≈ 135 µg/mL) | 2 µM (≈ 4.21 µg/mL) | 4 µM (≈ 8.41 µg/mL) | 4 µM (≈ 8.41 µg/mL) | Minimal inhibitory concentration (A. baumannii #2; #2): 4 µM (≈ 8.41 µg/mL); Minimal inhibitory concentration (A. baumannii #3; #3): 4 µM (≈ 8.41 µg/mL); Minimal inhibitory concentration (A. baumannii #10 [7]; #10): 2 µM (≈ 4.21 µg/mL); Minimal inhibitory concentration (A. baumannii #12; #12): 4 µM (≈ 8.41 µg/mL); Minimal inhibitory concentration (A. baumannii #9; #9): 2 µM (≈ 4.21 µg/mL); Minimal inhibitory concentration (A. baumannii #4; #4): 4 µM (≈ 8.41 µg/mL); Minimal inhibitory concentration (A. baumannii #8; #8): 2 µM (≈ 4.21 µg/mL); Minimal inhibitory concentration (A. baumannii KCTC 2508 [8]; KCTC 2508, 18 h): 16 µM (≈ 33.6 µg/mL); Minimal inhibitory concentration (A. baumannii #13; #13): 2 µM (≈ 4.21 µg/mL)
3 | CC[C@H](C)[C@H](NC(=O)[C@H](CCCNC(=N)N)NC(=O)[C@H](CCC(N)=O)NC(=O)[C@@H](NC(=O)[C@@H](NC(=O)[C@H](CCCNC(=N)N)NC(=O)[C@H](CCCCN)NC(=O)[C@H](Cc1ccccc1)NC(=O)[C@H](CCCCN)NC(=O)[C@@H](N)CCCCN)[C@@H](C)CC)C(C)C)C(=O)N[C@@H](CCCCN)C(=O)N[C@@H](CC(=O)O)C(=O)N[C@@H](Cc1ccccc1)C(=O)N[C@@H](CC(C)C)C(=O)N[C@@H](CCCNC(=N)N)C(=O)N[C@@H](CC(N)=O)C(N)=O [LL37-2, KKFKRIVQRIKDFLRN-NH2] (H-KKFKRIVQRIKDFLRN-NH2) | – | – | – | – | – | – | – | – | – | – | – | – | – | – | – | – | – | – | – | – | Minimal inhibitory concentration ([5]; L. monocytogenes KCTC 3710, MHB, 18 hours at 37° C.): 16 µM (≈ 33.4 µg/mL); Minimal inhibitory concentration (A. baumannii #11; A. baumannii #11, tolerance to antibiotics): 2 µM (≈ 4.18 µg/mL); Minimal inhibitory concentration (A. baumannii #5 [6]; A. baumannii #5, tolerance to antibiotics): 2 µM (≈ 4.18 µg/mL); Minimal inhibitory concentration (A. baumannii #19; A. baumannii #19, tolerance to antibiotics): 2 µM (≈ 4.18 µg/mL); Minimal inhibitory concentration (A. baumannii #2; A. baumannii #2, tolerance to antibiotics): 2 µM (≈ 4.18 µg/mL); Minimal inhibitory concentration (A. baumannii #3; A. baumannii #3, tolerance to antibiotics): 2 µM (≈ 4.18 µg/mL); Minimal inhibitory concentration (A. baumannii #10 [7]; A. baumannii #10, tolerance to antibiotics): 2 µM (≈ 4.18 µg/mL); Minimal inhibitory concentration (A. baumannii #12; A. baumannii #12, tolerance to antibiotics): 2 µM (≈ 4.18 µg/mL); Minimal inhibitory concentration (A. baumannii #9; A. baumannii #9, tolerance to antibiotics): 2 µM (≈ 4.18 µg/mL); Minimal inhibitory concentration (A. baumannii #4; A. baumannii #4, tolerance to antibiotics): 2 µM (≈ 4.18 µg/mL); Minimal inhibitory concentration (A. baumannii #8; A. baumannii #8, tolerance to antibiotics): 2 µM (≈ 4.18 µg/mL); Minimal inhibitory concentration of antimicrobial peptide (A. baumannii KCTC 2508 [8]; A. baumannii KCTC 2508, Control (MIC values of Table 3, no added ions)): 4 µM; Minimal inhibitory concentration (A. baumannii KCTC 2508 [8]; A. baumannii KCTC 2508, MHB, 18 hours at 37° C.): 4 µM (≈ 8.35 µg/mL); Minimal inhibitory concentration (A. baumannii #13; A. baumannii #13, tolerance to antibiotics): 2 µM (≈ 4.18 µg/mL)
